Results published in ChEMBL document CHEMBL5550218, “Structural Insights into Protein-Inhibitor Interactions in Human Tryptophan Dioxygenase” (J Med Chem, 2024).

Biological target: Tryptophan 2,3-dioxygenase (Homo sapiens, UniProt P48775)
Sequence (P48775 whole entry): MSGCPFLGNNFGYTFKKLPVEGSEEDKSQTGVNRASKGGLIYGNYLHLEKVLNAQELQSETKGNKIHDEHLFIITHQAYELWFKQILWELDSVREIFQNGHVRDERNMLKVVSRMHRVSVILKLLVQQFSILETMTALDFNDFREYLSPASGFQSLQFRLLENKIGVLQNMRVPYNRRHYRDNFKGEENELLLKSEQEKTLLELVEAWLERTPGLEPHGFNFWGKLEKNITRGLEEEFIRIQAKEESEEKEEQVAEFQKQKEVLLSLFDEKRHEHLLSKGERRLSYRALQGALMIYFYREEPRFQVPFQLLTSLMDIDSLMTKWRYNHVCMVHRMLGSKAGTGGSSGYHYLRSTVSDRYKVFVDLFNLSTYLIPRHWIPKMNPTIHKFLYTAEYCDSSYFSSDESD

- IC50: 424 µM
SMILES: O=C1CC(c2c[nH]c3ccc(F)cc23)C(=O)N1 (stereo unspecified) [PF-06840003]
